The source of these data is ChEMBL document CHEMBL3988442, “University of Dundee, Small-Polar-MMV Screening Library” (2021).

Assay [1] can be described thus: microbe, parasite or virus in culture. Particulars: Mycobacterium tuberculosis, 96 h, read-out: pIC50 (converted).
The nature of assay [2]: microbe, parasite or virus in culture. Particulars: Mycobacterium tuberculosis, 72 h, read-out: pIC50 (converted).

Take `CN(C)S(=O)(=O)NCCNc1ccc2ccccc2n1`: the IC50 is 326 µM in assay [1] and 419 µM in assay [2].

Take `CC(CN)c1nc(-c2ccccc2)no1` (centres undefined): the IC50 in assay [1] is 410 µM; in assay [2], 179 µM.

On to `COc1ccccc1N1CCC(N)C1` (centres undefined), for which the IC50 in assay [1] was 64.3 µM; in assay [2], 30.5 µM.

In the case of `COC(=O)CNc1ccccc1`, the IC50 in assay [1] was 123 µM; in assay [2] it was 463 µM.

As to `CN(Cc1cccc(C#N)c1)C(=O)C1CC1`, the values for the IC50 in assay [1] and in assay [2] were 133 µM and over 501 µM, respectively.

Regarding `O=C(c1cnc(C2CC2)nc1)N1CCCC(c2nccs2)C1` (centres undefined), the figures for the IC50 in assay [1] and in assay [2] were 6.43 µM and 8.4 µM, respectively.

Consider `c1ccc(-c2noc(CN3CCCC3)n2)cc1`, for which the IC50 was 82.1 µM in assay [1] and 63.9 µM in assay [2].

With `Fc1ccccc1CN1CCC[C@H](Cn2nnc(-c3cccs3)n2)C1`, the IC50 in assay [1] was 26.3 µM; in assay [2] it was 12.9 µM.

With `CN1CCN(C(=O)Cn2ccc3ccc(Br)cc32)CC1`, the IC50 was 173 µM in assay [1] and 132 µM in assay [2].

For `CC1CCN(S(=O)(=O)NC(C)C(C)C)CC1` (centres undefined), the values for the IC50 in assay [1] and in assay [2] were over 501 µM and 261 µM, respectively.

`COc1ccc(CNc2ccncc2F)cc1C#N`: the IC50 in assay [1] and in assay [2] was over 501 µM throughout.

As to `CC(C)COc1cncc(NC(C)CO)n1` (centres undefined), the IC50 in assay [1] and in assay [2] was over 501 µM throughout.

For `Cc1nc(N)cc(N2CCCC(COc3cccc(F)c3)C2)n1` (centres undefined), the IC50 in assay [1] was 27.9 µM; in assay [2] it was 46 µM.

In the case of `NCc1nc(-c2cccc(Cl)c2)no1`, the IC50 in assay [1] was over 501 µM; in assay [2] it was 323 µM.

For the compound `O=S(=O)(Cc1ccc(Br)cc1)NCCO`, the IC50 in assay [1] and in assay [2] was over 50.1 µM throughout.

In the case of `COc1ccc(OCCSCC(=O)NCCC#N)cc1`, the IC50 was 288 µM in assay [1] and 195 µM in assay [2].

As for `COc1ccc(NC(=O)CNc2ccc(Br)cc2F)cc1`, the IC50 in assay [1] and in assay [2] was over 50.1 µM throughout.

In the case of `CN(C)c1ncnc2c1CCN(C(=O)CN1CCCCC1)C2`, the IC50 in assay [1] and in assay [2] was over 50.1 µM each time.

For `CC(=O)Nc1ccc(N2C(=O)C=CC2=O)cc1`, the values for the IC50 in assay [1] and in assay [2] were over 501 µM and 181 µM, respectively.

For the compound `CC(C)N1[C@H](CN2CCCC2)C[C@@H]2CN(Cc3ccoc3)CC[C@@H]21`, the IC50 in assay [1] and in assay [2] was over 50.1 µM each time.

Consider `O=C(O)[C@@H]1CN(Cc2ccc(-c3cc[nH]n3)s2)C[C@H]1C1CC1`, for which the IC50 in assay [1] and in assay [2] was over 50.1 µM each time.

Consider `NC(CN1CCOCC1)c1ccccc1` (centres undefined), for which the IC50 in assay [1] and in assay [2] was over 501 µM in each case.

For `CN(C)S(=O)(=O)c1ccc(CN2CCC(C(N)=O)CC2)o1`, the IC50 in assay [1] and in assay [2] was over 50.1 µM each time.

Consider `COC(=O)c1cccc(OCC(O)C(F)(F)F)c1` (centres undefined), for which the IC50 in assay [1] and in assay [2] was over 501 µM in each case.

With `CN(Cc1ccc2c(c1)OCO2)C(=O)Cc1cccs1`, the results for the IC50 in assay [1] and in assay [2] were 239 µM and 199 µM, respectively.

In the case of `OCCOCCNCC(O)COCc1ccccc1Cl` (centres undefined), the IC50 in assay [1] and in assay [2] was over 501 µM each time.

On to `COC(=O)[C@H](C)NC(=O)c1cc(-c2cccc(Cl)c2)no1`, for which the values for the IC50 in assay [1] and in assay [2] were 26 µM and 42.5 µM, respectively.

On to `CNC(=O)CN1CCC(OCCCc2ccccc2)C1` (centres undefined), for which the IC50 in assay [1] was over 501 µM; in assay [2], 161 µM.

As to `CCC(O)CNc1ccc(-c2nc(CC(C)C)no2)cn1` (centres undefined), the figures for the IC50 in assay [1] and in assay [2] were 26.7 µM and 44.9 µM, respectively.

In the case of `NCCCc1ccccn1`, the IC50 in assay [1] and in assay [2] was over 501 µM in each case.

For the compound `CC(C)Cc1cc(C(=O)NCC(O)C(F)(F)F)[nH]n1` (centres undefined), the results for the IC50 in assay [1] and in assay [2] were 160 µM and 183 µM, respectively.

Turning to `Cc1ccc(C(=O)NCc2ccnc(N(C)C)c2)s1`, the IC50 in assay [1] is over 501 µM; in assay [2] it was 273 µM.

For `COc1cccc(SCC(=O)N2CCOC(C)C2)c1` (centres undefined), the IC50 in assay [1] and in assay [2] was over 501 µM throughout.

In the case of `CC(CO)Sc1ccc(S(=O)(=O)C(F)F)cc1` (centres undefined), the figures for the IC50 in assay [1] and in assay [2] were 158 µM and 459 µM, respectively.

In the case of `CCOc1ccccc1NC(=O)CSc1c[nH]nn1`, the IC50 in assay [1] was 195 µM; in assay [2] it was over 501 µM.

Regarding `NC(=O)c1ccccc1NC(=O)CSc1ccccn1`, the results for the IC50 in assay [1] and in assay [2] were over 501 µM and 116 µM, respectively.

Turning to `CCOC(=O)C(C)Nc1ccc2c(c1)CCCC(=O)N2` (centres undefined), the IC50 in assay [1] and in assay [2] was over 501 µM each time.

Consider `CCc1ccc(NC(=O)CN2CC[C@@H](N)C2)cc1`, for which the IC50 was over 501 µM in assay [1] and 199 µM in assay [2].

As to `CCOC1CCN(CCc2nc(-c3cccc(Cl)c3)no2)CC1`, the IC50 in assay [1] was 28.2 µM; in assay [2], 32.4 µM.

On to `CS(=O)(=O)NCCc1csc(N2CCCC2)n1`, for which the IC50 in assay [1] is over 501 µM; in assay [2] it was 132 µM.

`O=S(=O)(c1ccco1)N1CCOCc2ccccc21`: the IC50 in assay [1] is over 501 µM; in assay [2] it was 291 µM.

For the compound `CC(C)C(C)N(C)Cc1nnc(-c2ccc(Br)s2)o1` (centres undefined), the IC50 was 20.4 µM in assay [1] and 48.4 µM in assay [2].

For `NCCCc1cccc(F)c1`, the values for the IC50 in assay [1] and in assay [2] were over 501 µM and 74 µM, respectively.

For `COC(=O)N1CCN(c2ccccn2)CC1`, the results for the IC50 in assay [1] and in assay [2] were 168 µM and over 501 µM, respectively.

As for `Cc1ccc(F)c(C(=O)N[C@@H]2CNC[C@H]2O)c1Cl`, the IC50 in assay [1] and in assay [2] was over 501 µM throughout.

Turning to `CC(C)N(C)S(=O)(=O)N(Cc1cccs1)Cc1cccs1`, the IC50 was over 50.1 µM in assay [1] and 24.8 µM in assay [2].

As for `NC(=O)NC(=O)CCN(Cc1ccccc1)CC1CCOCC1`, the values for the IC50 in assay [1] and in assay [2] were 35.7 µM and 28.7 µM, respectively.

For the compound `O=C(COCC(F)(F)F)NCc1cn2ccccc2n1`, the IC50 in assay [1] was over 501 µM; in assay [2] it was 92.3 µM.

Consider `O=C(NCC1CC1)c1nnc2ccc(Cl)cc2n1`, for which the IC50 is 11.4 µM in assay [1] and 5.59 µM in assay [2].

Turning to `Cc1cc(C)c(C)c(OCC(=O)N2CCN(C)CC2)c1`, the values for the IC50 in assay [1] and in assay [2] were 129 µM and 111 µM, respectively.

For `CS(=O)(=O)NCc1ccnc(Oc2ccc(F)cc2)c1`, the values for the IC50 in assay [1] and in assay [2] were over 501 µM and 154 µM, respectively.

Turning to `Cc1nnsc1CN1C[C@H]2CC[C@@H]1CN(Cc1ccccc1)C2`, the IC50 in assay [1] is 42.5 µM; in assay [2], 13.8 µM.

Turning to `Cc1cnn(C2CN(c3ccccc3S(=O)(=O)C(F)(F)F)C2)c1`, the IC50 was 29.4 µM in assay [1] and 10.2 µM in assay [2].

Take `CCOC(=O)CNc1ccc(OC)cc1`: the IC50 in assay [1] was 335 µM; in assay [2], 124 µM.

With `CCc1cccc2c1N(C(=O)CNC)CC2`, the IC50 was over 501 µM in assay [1] and 367 µM in assay [2].

Turning to `COc1ccc(CNc2ncc(-c3cc(C)no3)c(C(C)C)n2)cc1`, the IC50 in assay [1] and in assay [2] was over 50.1 µM each time.

Take `COCCOc1ccc(C(=O)NCc2ccco2)cc1`: the IC50 is 61.7 µM in assay [1] and 109 µM in assay [2].

Consider `Cc1cc(S(=O)(=O)N2CCCC2CN)sc1C` (centres undefined), for which the IC50 in assay [1] is over 501 µM; in assay [2], 141 µM.

As for `OCCN1CCN(c2nc(-c3ccccc3)no2)CC1`, the IC50 was over 501 µM in assay [1] and 83.7 µM in assay [2].

For `Nc1nnc(SCc2ccccc2F)s1`, the IC50 in assay [1] is 157 µM; in assay [2], 248 µM.

In the case of `CN(Cc1ccc(Br)cc1)C(=O)CSc1nc(N)n[nH]1`, the IC50 in assay [1] is over 501 µM; in assay [2] it was 152 µM.

In the case of `COC(=O)COc1ccc(-c2noc(C3CCCO3)n2)cc1` (centres undefined), the IC50 is 18.6 µM in assay [1] and 31.9 µM in assay [2].

As to `CC(C)c1cccc(S(=O)(=O)NCCN)c1`, the IC50 in assay [1] was over 501 µM; in assay [2] it was 219 µM.

With `C=C(C)CCOC(=O)c1cc(C(N)=O)cs1`, the values for the IC50 in assay [1] and in assay [2] were 157 µM and 39.4 µM, respectively.

In the case of `COc1cccc(CS(=O)(=O)Nc2ccc(C)nc2)c1`, the results for the IC50 in assay [1] and in assay [2] were over 501 µM and 307 µM, respectively.

For `Cc1ccc(N(CC(=O)c2ccc(Br)cc2)C2=NCCCCC2)cc1`, the IC50 in assay [1] is 23.1 µM; in assay [2] it was 11.1 µM.

Take `NCc1cccc(S(=O)(=O)NCc2cccc(F)c2)c1`: the figures for the IC50 in assay [1] and in assay [2] were over 501 µM and 232 µM, respectively.

Take `CCNc1ncc(C(=O)N2CCCCC2)s1`: the IC50 in assay [1] is over 501 µM; in assay [2], 377 µM.

For the compound `O=C(NCCC(O)C(F)(F)F)c1c(O)cc(F)cc1F` (centres undefined), the IC50 in assay [1] was 244 µM; in assay [2] it was 290 µM.

In the case of `CCCc1nc(N2CCCC(C)C2)c2c(n1)c(C)nn2CC` (centres undefined), the IC50 in assay [1] was over 50.1 µM; in assay [2], 24.2 µM.

As for `CN(Cc1ccc(O)cc1)C(=O)c1cc(Cl)c[nH]1`, the IC50 was 187 µM in assay [1] and 173 µM in assay [2].

Take `Cc1nn(CCO)c(NCc2cccc(F)c2)c1C`: the IC50 in assay [1] and in assay [2] was over 501 µM each time.

In the case of `CN1CC(=O)Nc2cccnc21`, the figures for the IC50 in assay [1] and in assay [2] were 314 µM and 157 µM, respectively.

Consider `CSc1ccccc1NC(=O)CCn1cnc(C#N)n1`, for which the IC50 in assay [1] and in assay [2] was over 501 µM throughout.

As to `Cc1ccc2nc(C3CCCN3Cc3nnc(C)s3)[nH]c2c1` (centres undefined), the IC50 in assay [1] and in assay [2] was over 50.1 µM each time.

As to `NCC(=O)N1CCCC(CCc2c(F)cccc2F)C1` (centres undefined), the IC50 in assay [1] is 258 µM; in assay [2], 238 µM.

In the case of `Cc1cc(C2CCC2)nc(N2CCNC(=O)C2)n1`, the IC50 is 44.3 µM in assay [1] and 119 µM in assay [2].

Regarding `CC1CN(CCCOc2ccc(C#N)cc2)CCN1` (centres undefined), the IC50 in assay [1] was 390 µM; in assay [2] it was over 501 µM.

Consider `CCO[C@H]1CN(c2nc(-c3ccccc3)no2)C[C@@H]1O`, for which the IC50 in assay [1] is over 501 µM; in assay [2] it was 262 µM.

In the case of `c1cnc(-c2nc(C3CCOC3)no2)cn1` (centres undefined), the IC50 in assay [1] and in assay [2] was over 50.1 µM each time.

With `COC(=O)N1CCC(Nc2nnc(C(F)(F)F)s2)CC1`, the IC50 in assay [1] was 230 µM; in assay [2] it was 160 µM.

Regarding `NS(=O)(=O)CC1CCN(c2ncc(Br)cn2)CC1`, the results for the IC50 in assay [1] and in assay [2] were 424 µM and 286 µM, respectively.
